From ChEMBL document CHEMBL1155783, “Novel sterically hindered cannabinoid CB1 receptor ligands” (Bioorg Med Chem, 2008) come the findings set out here.

The source made the active and inactive calls. The calls are words filed in the database; no cut-off is given here.

One experiment deals with Cannabinoid receptor 1 (Homo sapiens, UniProt P21554). Nature of the experiment: biochemical. The class given is cell-based, HEK293.
The target in the next experiment is Cannabinoid receptor 2 (Homo sapiens, UniProt P34972). Nature of the experiment: Displacement of [3H]CP-55940 from human recombinant CB2 receptor expressed in HEK cells. The format is cell-based, HEK293. A general note: In a radioligand displacement assay an active substance lowers the binding of a labelled ligand.
For a further experiment, the species on record is Homo sapiens. Nature of the experiment: Selectivity of Ki for human recombinant CB1 receptor over Ki for human recombinant CB2 receptor.
Experiment [1] deals with Cannabinoid receptor 1 (Mus musculus) (UniProt P47746). Nature of the experiment: Agonist activity at mouse CB1 receptor in N18TG2 cells assessed as inhibition of forskolin-stimulated cAMP formation at 1 uM in presence of 0.1 uM WIN-55212-2. In general terms: Changes in cAMP serve as a functional read-out for many G protein-coupled receptors.
Sequence of Cannabinoid receptor 1 (Mus musculus) (P47746 whole entry, looked up): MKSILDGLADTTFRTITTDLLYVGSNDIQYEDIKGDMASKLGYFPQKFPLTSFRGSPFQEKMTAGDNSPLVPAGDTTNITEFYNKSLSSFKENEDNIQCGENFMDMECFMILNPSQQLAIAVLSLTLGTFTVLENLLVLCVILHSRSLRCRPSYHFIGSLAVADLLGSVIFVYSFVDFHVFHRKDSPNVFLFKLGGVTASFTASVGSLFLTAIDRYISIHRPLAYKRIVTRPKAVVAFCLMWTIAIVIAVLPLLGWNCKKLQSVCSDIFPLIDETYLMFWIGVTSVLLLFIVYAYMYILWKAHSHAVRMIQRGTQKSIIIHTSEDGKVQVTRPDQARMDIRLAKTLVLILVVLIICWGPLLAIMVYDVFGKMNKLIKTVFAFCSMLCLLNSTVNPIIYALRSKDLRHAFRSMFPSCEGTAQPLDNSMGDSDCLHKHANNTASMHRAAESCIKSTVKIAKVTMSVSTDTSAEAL

Sequence of Cannabinoid receptor 1 (P21554 whole entry): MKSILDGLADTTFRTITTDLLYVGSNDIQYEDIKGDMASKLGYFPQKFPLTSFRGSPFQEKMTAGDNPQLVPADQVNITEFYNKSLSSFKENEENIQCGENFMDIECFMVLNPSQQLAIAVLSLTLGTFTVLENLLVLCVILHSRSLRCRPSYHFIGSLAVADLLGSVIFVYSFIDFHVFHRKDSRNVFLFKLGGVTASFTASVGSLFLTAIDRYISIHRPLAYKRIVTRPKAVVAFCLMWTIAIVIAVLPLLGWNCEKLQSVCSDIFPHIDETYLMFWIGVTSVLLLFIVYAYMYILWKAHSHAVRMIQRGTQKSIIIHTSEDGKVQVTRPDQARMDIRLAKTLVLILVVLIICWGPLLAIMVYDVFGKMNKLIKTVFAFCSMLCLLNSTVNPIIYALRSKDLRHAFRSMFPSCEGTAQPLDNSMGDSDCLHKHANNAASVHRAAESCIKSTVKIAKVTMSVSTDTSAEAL
Sequence of Cannabinoid receptor 2 (P34972 whole entry): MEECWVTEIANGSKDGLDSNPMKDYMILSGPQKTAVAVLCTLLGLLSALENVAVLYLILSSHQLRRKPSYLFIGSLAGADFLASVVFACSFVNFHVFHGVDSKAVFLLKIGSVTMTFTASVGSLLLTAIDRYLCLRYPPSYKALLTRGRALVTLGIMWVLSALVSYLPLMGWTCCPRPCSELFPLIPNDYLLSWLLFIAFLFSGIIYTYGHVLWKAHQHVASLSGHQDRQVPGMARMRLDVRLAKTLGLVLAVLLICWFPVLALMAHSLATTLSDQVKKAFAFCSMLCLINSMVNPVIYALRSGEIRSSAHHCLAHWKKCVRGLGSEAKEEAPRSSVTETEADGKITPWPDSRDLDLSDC

Consider `O=C(NCCC(c1ccccc1)c1ccccc1)C(c1ccccc1)c1ccc([N+](=O)[O-])cc1` (stereo unspecified), for which the figures for the Ki at Cannabinoid receptor 1 and on Cannabinoid receptor 2 were 560 nM and 790 nM, respectively.

With `O=C(Cc1ccc(Cl)cc1)NCCC(c1ccccc1)c1ccccc1`, the inhibitory constant (Ki) at Cannabinoid receptor 1 stood at 1600 nM; on Cannabinoid receptor 2, 2400 nM.

For `O=C(Cc1ccccc1)NCCC(c1ccccc1)c1ccccc1`, the figures for the Ki at Cannabinoid receptor 1 and on Cannabinoid receptor 2 were 560 nM and over 7900 nM, respectively.

As for `O=C(NCCC(c1ccccc1)c1ccccc1)C(c1ccccc1)c1ccc(O)cc1` (stereo unspecified), the Ki at Cannabinoid receptor 1 was determined as 560 nM; on Cannabinoid receptor 2, 1100 nM.

On to `O=C(NCCCc1ccccc1)C(c1ccccc1)c1ccccc1`, for which the Ki at Cannabinoid receptor 1 was 3400 nM; on Cannabinoid receptor 2, over 7900 nM.

In the case of `O=C(NCCC(c1ccccc1)c1ccccc1)C(c1ccccc1)c1ccc(Br)cc1` (stereo unspecified), the inhibitory constant (Ki) was 220 nM on Cannabinoid receptor 1 and over 7900 nM on Cannabinoid receptor 2.

For the compound `O=C(Cc1ccc(Br)cc1)NCCC(c1ccccc1)c1ccccc1`, the Ki at Cannabinoid receptor 1 was found to be 800 nM; on Cannabinoid receptor 2, 1300 nM.

Regarding `Cc1ccc(C(C(=O)NCCC(c2ccccc2)c2ccccc2)c2ccccc2)cc1` (stereo unspecified), the Ki amounted to 560 nM at Cannabinoid receptor 1 and 650 nM on Cannabinoid receptor 2.

For the compound `O=C(NCCC(c1ccccc1)c1ccccc1)C(c1ccccc1)c1ccccc1`, the inhibition constant Ki on Cannabinoid receptor 1 was found to be 58 nM; on Cannabinoid receptor 2, 7900 nM. Also, the Ratio Ki in the experiment listed under Homo sapiens was 140. The result in experiment [1] was inactive.

Regarding `CC(C(=O)NCCC(c1ccccc1)c1ccccc1)(c1ccccc1)c1ccccc1`, the Ki on Cannabinoid receptor 1 worked out at 560 nM; at Cannabinoid receptor 2, 290 nM.

Consider `O=C(NCCC(c1ccccc1)c1ccccc1)C(O)(c1ccccc1)c1ccccc1`, for which the Ki was determined as 2200 nM on Cannabinoid receptor 1 and 2300 nM at Cannabinoid receptor 2.

Consider `O=C(NCCC(c1ccccc1)c1ccccc1)C(Cl)(c1ccccc1)c1ccccc1`, for which the values for the Ki on Cannabinoid receptor 1 and on Cannabinoid receptor 2 were 280 nM and 1400 nM, respectively.

`O=C(NCCCc1ccccc1)C(c1ccccc1)c1ccc(Br)cc1` (stereo unspecified): the Ki was 1900 nM on Cannabinoid receptor 1 and 1800 nM on Cannabinoid receptor 2.

Regarding `O=C(NCCC(c1ccccc1)c1ccccc1)C(c1ccccc1)c1ccc(Cl)cc1` (stereo unspecified), the Ki at Cannabinoid receptor 1 is 560 nM; at Cannabinoid receptor 2 it was over 7900 nM.

As for `Nc1ccc(C(C(=O)NCCC(c2ccccc2)c2ccccc2)c2ccccc2)cc1` (stereo unspecified), the Ki on Cannabinoid receptor 1 came out at 900 nM; at Cannabinoid receptor 2, 1200 nM.

Regarding `O=C(NCCCc1ccccc1)C(c1ccccc1)c1ccc(Cl)cc1` (stereo unspecified), the inhibition constant (Ki) at Cannabinoid receptor 1 is 2200 nM; at Cannabinoid receptor 2, 2400 nM.

Regarding `COc1ccc(C(C(=O)NCCC(c2ccccc2)c2ccccc2)c2ccccc2)cc1` (stereo unspecified), the Ki stood at 560 nM on Cannabinoid receptor 1 and 790 nM at Cannabinoid receptor 2.

A word on the Ki: it is a measure of affinity in units of concentration, obtained from inhibition or displacement.
